Experimental data as given in patent US20230250096A1, “SUBSTITUTED PHENYL-1H-PYRROLO[2,3-c] PYRIDINE DERIVATIVES” (Janssen Pharmaceutica NV, priority 2021, published 2023).

Key:
[1] = molecular target: T1, menin/MLL (terbium chelate-labeled menin, FITC-MBM1 peptide) (Homo sapiens, UniProt O00255, T541A); test: Menin/MLL homogenous time-resolved fluorescence (HTRF) assay; assay type: binding; details: 30 min incubation
T1 construct: Menin (a.a 1-610-6xhis tag, 2.3 mg/mL in 20 mM Hepes)
T1 sequence (O00255 with tags, fused parts or gaps T541A): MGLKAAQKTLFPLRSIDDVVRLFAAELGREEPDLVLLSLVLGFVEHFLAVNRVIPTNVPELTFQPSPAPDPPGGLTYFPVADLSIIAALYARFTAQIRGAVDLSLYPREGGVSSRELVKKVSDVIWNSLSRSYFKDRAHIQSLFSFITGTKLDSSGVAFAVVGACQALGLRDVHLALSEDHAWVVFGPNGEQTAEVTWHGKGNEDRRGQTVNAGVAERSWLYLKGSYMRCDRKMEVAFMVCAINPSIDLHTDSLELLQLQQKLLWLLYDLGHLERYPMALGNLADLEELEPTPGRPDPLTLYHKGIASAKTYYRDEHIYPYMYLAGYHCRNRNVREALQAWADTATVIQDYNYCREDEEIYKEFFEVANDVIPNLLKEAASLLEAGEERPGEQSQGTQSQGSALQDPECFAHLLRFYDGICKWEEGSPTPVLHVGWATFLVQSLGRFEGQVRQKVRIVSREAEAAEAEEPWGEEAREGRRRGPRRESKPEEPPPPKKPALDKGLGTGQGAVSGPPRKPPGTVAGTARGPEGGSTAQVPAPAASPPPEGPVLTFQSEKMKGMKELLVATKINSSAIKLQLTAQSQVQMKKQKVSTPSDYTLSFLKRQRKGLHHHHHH
Experimental: 1) Menin/MLL Homogenous Time-Resolved Fluorescence (HTRF) Assay
To an untreated, white 384-well microtiter plate was added 40 nL 200× test compound in DMSO and 4 μL 2× terbium chelate-labeled menin (vide infra for preparation) in assay buffer (40 mM Tris HCl, pH 7.5, 50 mM NaCl. 1 mM DTT (dithiothreitol) and 0.05% Pluronic F-127). After incubation of test compound and terbium chelate-labeled menin for 30 min at ambient temperature, 4 μL 2×FITC-MBM1 peptide (FITC-β-alanine-[…]-NH2) (“FITC” means fluorescein isothiocyanate) in assay buffer was added, the microtiter plate centrifuged at 1000 rpm for 1 min and the assay mixtures incubated for 15 min at ambient temperature. The relative amount of menin FITC-MBM1 complex present in an assay mixture is determined by measuring the homogenous time-resolved fluorescence (HTRF) of the terbium/FITC donor/acceptor fluorphore pair using an EnVision microplate reader (ex. 337 nm/terbium em. 490 nm/FITC em. 520 nm) at ambient temperature. The degree of fluorescence resonance energy transfer (the HTRF value) is expressed as the ratio of the fluorescence emission intensities of the FITC and terbium fluorophores (F^em520 nm/F^em490 nm). The final concentrations of reagents in the binding assay are […] terbium chelate-labeled menin, 75 nM FITC-MBM1 peptide and 0.5% DMSO in assay buffer. Dose-response titrations of test compounds are conducted using an 11 point, four-fold serial dilution scheme, starting typically at 10 μM.
Compound potencies were determined by first calculating % inhibition at each compound concentration according to equation 1:
% inhibition=((HC−LC)−(HTRF^compound−LC))/(HC−LC))*100 (Eqn 1)
Where LC and HC are the HTRF values of the assay in the presence or absence of a saturating concentration of a compound that competes with FITC-MBM1 for binding to menin, and HTRF^compound is the measured HTRF value in the presence of the test compound. HC and LC HTRF values represent an average of at least 10 replicates per plate.
% inhibition=Bottom+(Top−Bottom)/(1+10^((log/C50−log[cmpd])*h)) (Eqn 2)
Where Bottom and Top are the lower and upper asymptotes of the dose-response curve, respectively, IC50 is the concentration of compound that yields 50% inhibition of signal and h is the Hill coefficient.
Preparation of Terbium cryptate labeling of Menin: Menin (a.a 1-610-6xhis tag, 2.3 mg/mL in 20 mM Hepes (2-[4-(2-Hydroxyethyl)-1-piperazinyl]ethane sulfonic acid), 80 mM NaCl, 5 mM DTT (Dithiothreitol), pH 7.5) was labeled with terbium cryptate as follows. 200 μg of Menin was buffer exchanged into 1×Hepes buffer. 6.67 μM Menin was incubated with 8-fold molar excess NHS (N-hydroxysuccinimide)-terbium cryptate for 40 minutes at room temperature. Half of the labeled protein was purified away from free label by running the reaction over a NAP5 column with elution buffer (0.1M Hepes, pH 7+0.1% BSA (bovine serum albumin)). The other half was eluted with 0.1 M phosphate buffered saline (PBS), pH7. 400 μl of eluent was collected for each, aliquoted and frozen at −80° C. The final concentration of terbium-labeled Menin protein was 115 μg/mL in Hepes buffer and 85 μg/mL in PBS buffer, respectively.

MEIS1 mRNA expression = MEIS1 mRNA expression assay (Quantigene Singleplex) in MOLM14 cells; assay type: cell-based, human; details: 48 hours incubation
Experimental: 2b) MEIS1 mRNA Expression Assay
MEIS1 mRNA expression upon treatment of compound was examined by Quantigene Singleplex assay (Thermo Fisher Scientific). This technology allows for direct quantification of mRNA targets using probes hybridizing to defined target sequences of interest and the signal is detected using a Multimode plate reader Envision (PerkinElmer). The MOLM14 cell line was used for this experiment. Cells were plated in 96-well plates at 3,750 cells/well in the presence of increasing concentrations of compounds. After incubation of 48 hours with compounds, cells were lysed in lysis buffer and incubated for 45 minutes at 55° C. Cell lysates were mixed with human MEIS specific capture probe or human RPL28 (Ribosomal Protein L28) specific probe as a normalization control, as well as blocking probes. Cell lysates were then transferred to the custom assay hybridization plate (Thermo Fisher Scientific) and incubated for 18 to 22 hours at 55° C. Subsequently, plates were washed to remove unbound materials followed by sequential addition of preamplifiers, amplifiers, and label probe. Signals (═gene counts) were measured with a Multimode plate reader Envision. IC50S were calculated by dose-response modelling using appropriate software. For all non-housekeeper genes response equal counts corrected for background and relative expression. For each sample, each test gene signal (background subtracted) was divided by the normalization gene signal (RPL28: background subtracted). Fold changes were calculated by dividing the normalized values for the treated samples by the normalized values for the DMSO treated sample. Fold changes of each target gene were used for the calculation of IC50S.

## CC(=O)N1CCC(CN2C[C@@H](Cc3cn(-c4ccc(F)cc4C(=O)N(C)C(C)C)c4cncc(C)c34)C[C@@H]2C)CC1 [Compound 133]
[1]
  IC50: 0.051 nM
MEIS1 mRNA expression; Homo sapiens, MOLM-14, 48 h
  IC50: 42 nM

## CN=S(=O)(c1cc(F)ccc1-n1cc(CC2CCN(CC3CCOCC3)C2)c2c(C)cncc21)C(C)C (single isomer, unassigned) [Compound 77c]
[1]
  IC50: 0.546 nM
MEIS1 mRNA expression
  IC50: 669 nM

## CC(=O)N1C[C@@H]2CN(CCCC(C(C)C)N3CC[C@@H](Cc4cn(-c5ccc(F)cc5C(=O)N(C)C(C)C)c5cncc(C)c45)C3)C[C@H]2C1 (mixture of isomers) [Compound 12]
[1]
  IC50: 0.018 nM
MEIS1 mRNA expression; Homo sapiens, MOLM-14, 48 h
  IC50: 5 nM

## CC(=O)N1CCC(CN2CCCC(Cc3cn(-c4ccc(F)cc4C(=O)N(C)C(C)C)c4cncc(C)c34)CC2)CC1 (centres unmarked) [Compound 160]
[1]
  IC50: 4.02 nM
MEIS1 mRNA expression; Homo sapiens, MOLM-14, 48 h
  IC50: > 1000 nM

## CC(=O)N1CCC2(CCC2N2CC(Cc3cn(-c4ccc(F)cc4C(=O)N(C)C(C)C)c4cncc(C)c34)C2)CC1 (centres unmarked) [Compound 296]
[1]
  IC50: 0.339 nM
MEIS1 mRNA expression; Homo sapiens, MOLM-14, 48 h
  IC50: 549 nM

## CC(=O)N1C[C@@H]2CN(CCC[C@H](C(C)C)N3CC[C@@H](Cc4cn(-c5ccc(F)cc5C(=O)N(C)C(C)C)c5cncc(Cl)c45)C3)C[C@H]2C1 (single isomer, unassigned) [Compound 18a]
[1]
  IC50: 0.019 nM
MEIS1 mRNA expression; Homo sapiens, MOLM-14, 48 h
  IC50: 5 nM

## CC(=O)N1CC2CC1C2C(C)N1CC(Cc2cn(-c3ccc(F)cc3C(=O)N(C)C(C)C)c3cncc(C)c23)C1 (centres unmarked) [Compound 304]
[1]
  IC50: 2.8 nM
MEIS1 mRNA expression; Homo sapiens, MOLM-14, 48 h
  IC50: > 1000 nM

## COC1CC(C)N(C(=O)c2cc(F)ccc2-n2cc(C[C@@H]3CCN(CC4CCN(C(C)=O)CC4)C3)c3c(C)cncc32)C1 (some centres unmarked) [Compound 318]
[1]
  IC50: 0.22 nM
MEIS1 mRNA expression; Homo sapiens, MOLM-14, 48 h
  IC50: 1380 nM

## CC(=O)N1CCC(CN2CC[C@@H](Cc3cn(-c4ccc(F)cc4C(=O)N4CCC45CCC5)c4cncc(C)c34)C2)CC1 [Compound 310]
[1]
  IC50: 0.119 nM
MEIS1 mRNA expression; Homo sapiens, MOLM-14, 48 h
  IC50: 351 nM

## CCN(C(=O)c1cc(F)ccc1-n1cc(C[C@@H]2CCN(CC3CCNC(=O)CC3)C2)c2c(C)cncc21)C(C)C (mixture of isomers) [Compound 254]
[1]
  IC50: 0.071 nM
MEIS1 mRNA expression; Homo sapiens, MOLM-14, 48 h
  IC50: 19 nM

## Cc1cncc2c1c(C[C@H]1CCN(C(CCCN3CCC(S(C)(=O)=O)CC3)C(C)C)C1)cn2-c1ccc(F)cc1C(=O)N(C)C(C)C (mixture of isomers) [Compound 11]
[1]
  IC50: 0.034 nM
MEIS1 mRNA expression; Homo sapiens, MOLM-14, 48 h
  IC50: 6 nM

## Cc1cncc2c1c(C[C@H]1CCN(CC3CCS(=O)(=O)CC3)C1)cn2-c1ccc(F)cc1C(=O)N(C)C(C)C (single isomer, unassigned) [Compound 124]
[1]
  IC50: 0.156 nM
MEIS1 mRNA expression; Homo sapiens, MOLM-14, 48 h
  IC50: 114 nM

## Cc1cncc2c1c(CC1CCN(C[C@@H]3CNC(=O)C3)CC1)cn2-c1ccc(F)cc1C(=O)N(C)C(C)C (single isomer, unassigned) [Compound 186b]
[1]
  IC50: 0.932 nM
MEIS1 mRNA expression; Homo sapiens, MOLM-14, 48 h
  IC50: 504 nM

## Cc1cncc2c1c(CC1CN(CC3CCOCC3)C1)cn2-c1ccc(F)cc1C(=O)N1CCC(O)C1C (centres unmarked) [Compound 271]
[1]
  IC50: 0.368 nM
MEIS1 mRNA expression; Homo sapiens, MOLM-14, 48 h
  IC50: 288 nM

## Cc1cncc2c1c(CC1CN([C@@H](C(C)C)[C@H]3C[C@@H](N4CCN(S(C)(=O)=O)CC4)C3)C1)cn2-c1ccc(F)cc1C(=O)N(C)C(C)C (single isomer, unassigned) [Compound 34a]
[1]
  IC50: 0.019 nM
MEIS1 mRNA expression; Homo sapiens, MOLM-14, 48 h
  IC50: 16 nM

## CC(=O)N1CCC(N2CC(Cc3cn(-c4ccc(F)cc4C(=O)N(C)C(C)C)c4cncc(C)c34)C2)C[C@@H]1C (single isomer, unassigned) [Compound 293a]
[1]
  IC50: 0.459 nM
MEIS1 mRNA expression; Homo sapiens, MOLM-14, 48 h
  IC50: 148 nM

## Cc1cncc2c1c(C[C@@H]1CCN(CC3CCN(C(=O)C(C)C)CC3)C1)cn2-c1ccc(F)cc1C(=O)N(C[C@H](C)O)C(C)C [Compound 330]
[1]
  IC50: 0.13 nM
MEIS1 mRNA expression; Homo sapiens, MOLM-14, 48 h
  IC50: 10 nM

## Cc1cncc2c1c(CC1CN(CC(=O)N3CCOCC3)C1)cn2-c1ccc(F)cc1C(=O)N(C)C(C)C [Compound 83]
[1]
  IC50: 1.3 nM
MEIS1 mRNA expression; Homo sapiens, MOLM-14, 48 h
  IC50: 2220 nM

## CC(=O)N1CCCC(N2CC[C@@H](Cc3cn(-c4ccc(F)cc4C(=O)N(C)C(C)C)c4cncc(C)c34)C2)CC1 (mixture of isomers) [Compound 216]
[1]
  IC50: 0.187 nM
MEIS1 mRNA expression; Homo sapiens, MOLM-14, 48 h
  IC50: 100 nM
